Source: patent US20240293379A1, “THERAPEUTIC AGENT FOR CANCER OF PATIENT WITH DECREASE IN RB1 FUNCTION USING MYT1 INHIBITOR AND CHEMOTHERAPEUTIC AGENT IN COMBINATION, AND TREATMENT METHOD THEREOF” (Chugai Seiyaku Kabushiki Kaisha, priority 2022, published 2024)

Tests used:
Test in all cases: Pemetrexed cytotoxicity test upon suppression of expression of MYT1
Type in all cases: cell-based
A549 = A549 (RB1 wild-type)
Procedure: (§1) Thereafter, the plates were shaken to transfect each siRNA at a final concentration of 10 nM.
(§2) The −Log 2 value of fold change of IC50 and the maximum value of Bliss score, which are indexes of the combination effect, were calculated by comparing with the actually obtained cell survival curve, and described in Table 6 (see Non Patent Literature 9).

NCI-H661 = NCI-H661 (RB1 wild-type)
Procedure: as §1, §2

NCI-H322 = NCI-H322 (RB1 wild-type)
Procedure: as §1, §2

NCI-H441 = NCI-H441 (RB1 wild-type)
Procedure: as §1, §2

ChaGo-K-1 = ChaGo-K-1 (RB1 mutant)
Procedure: as §1, §2

NCI-H1993 = NCI-H1993 (RB1 wild-type)
Procedure: as §1, §2

NCI-H596 = NCI-H596 (RB1 mutant)
Procedure: as §1, §2

LU65 = LU65 (RB1 mutant)
Procedure: as §1, §2

HOP-62 = HOP-62 (RB1 wild-type)
Procedure: as §1, §2

NCI-H1666 = NCI-H1666 (RB1 wild-type)
Procedure: as §1, §2

EKVX = EKVX (RB1 wild-type)
Procedure: as §1, §2

NCI-H292 = NCI-H292 (RB1 wild-type)
Procedure: as §1, §2

NCI-H358 = NCI-H358 (RB1 wild-type)
Procedure: as §1, §2

NCI-H2122 = NCI-H2122 (RB1 wild-type)
Procedure: as §1, §2

ABC-1 = ABC-1 (RB1 wild-type)
Procedure: as §1, §2

PC-9 = PC-9 (RB1 wild-type)
Procedure: as §1, §2

NCI-H2110 = NCI-H2110 (RB1 mutant)
Procedure: as §1, §2

NCI-H460 = NCI-H460 (RB1 wild-type)
Procedure: as §1, §2

NCI-H1155 = NCI-H1155 (RB1 mutant)
Procedure: as §1, §2

[1] = pemetrexed + MYT1 siRNA #18 10 nM
[2] = pemetrexed + MYT1 siRNA #16 10 nM

## MYT1 #18: ON-TARGETplus individual siRNA, Dharmacon product code J-005026-18, nucleotide sequence SEQ ID No: 5 (CUUCCGAGCUGCGUUCUGU; chemistry not fully specified)
A549; 10 nM, no pemetrexed
  Cytotoxic activity of siRNA alone, MYT1 #18: 0.844%
A549; [1]
  Bliss score maximum value, MYT1 #18: 9.581
  HSA score maximum value, MYT1 #18: 10.174
NCI-H661; 10 nM, no pemetrexed
  Cytotoxic activity of siRNA alone, MYT1 #18: 9.766%
NCI-H661; [1]
  Bliss score maximum value, MYT1 #18: 11.699
  HSA score maximum value, MYT1 #18: 16.633
NCI-H322; 10 nM, no pemetrexed
  Cytotoxic activity of siRNA alone, MYT1 #18: −6.271%
NCI-H322; [1]
  Bliss score maximum value, MYT1 #18: 23.827
  HSA score maximum value, MYT1 #18: 19.509
NCI-H441; 10 nM, no pemetrexed
  Cytotoxic activity of siRNA alone, MYT1 #18: 22.238%
NCI-H441; [1]
  Bliss score maximum value, MYT1 #18: 0.784
  HSA score maximum value, MYT1 #18: 17.896
ChaGo-K-1; 10 nM, no pemetrexed
  Cytotoxic activity of siRNA alone, MYT1 #18: −2.748%
ChaGo-K-1; [1]
  Bliss score maximum value, MYT1 #18: 34.464
  HSA score maximum value, MYT1 #18: 32.605
NCI-H1993; 10 nM, no pemetrexed
  Cytotoxic activity of siRNA alone, MYT1 #18: 10.347%
NCI-H1993; [1]
  Bliss score maximum value, MYT1 #18: 7.046
  HSA score maximum value, MYT1 #18: 14.207
NCI-H596; 10 nM, no pemetrexed
  Cytotoxic activity of siRNA alone, MYT1 #18: −2.058%
NCI-H596; [1]
  Bliss score maximum value, MYT1 #18: 44.329
  HSA score maximum value, MYT1 #18: 42.707
LU65; 10 nM, no pemetrexed
  Cytotoxic activity of siRNA alone, MYT1 #18: −0.297%
LU65; [1]
  Bliss score maximum value, MYT1 #18: 34.154
  HSA score maximum value, MYT1 #18: 33.984
HOP-62; 10 nM, no pemetrexed
  Cytotoxic activity of siRNA alone, MYT1 #18: 10.654%
HOP-62; [1]
  Bliss score maximum value, MYT1 #18: 20.375
  HSA score maximum value, MYT1 #18: 25.849
NCI-H1666; 10 nM, no pemetrexed
  Cytotoxic activity of siRNA alone, MYT1 #18: 1.456%
NCI-H1666; [1]
  Bliss score maximum value, MYT1 #18: 13.160
  HSA score maximum value, MYT1 #18: 13.970
EKVX; 10 nM, no pemetrexed
  Cytotoxic activity of siRNA alone, MYT1 #18: 1.053%
EKVX; [1]
  Bliss score maximum value, MYT1 #18: 6.653
  HSA score maximum value, MYT1 #18: 7.060
NCI-H292; 10 nM, no pemetrexed
  Cytotoxic activity of siRNA alone, MYT1 #18: 11.155%
NCI-H292; [1]
  Bliss score maximum value, MYT1 #18: 6.895
  HSA score maximum value, MYT1 #18: 11.985
NCI-H358; 10 nM, no pemetrexed
  Cytotoxic activity of siRNA alone, MYT1 #18: 2.693%
NCI-H358; [1]
  Bliss score maximum value, MYT1 #18: 13.168
  HSA score maximum value, MYT1 #18: 14.592
NCI-H2122; 10 nM, no pemetrexed
  Cytotoxic activity of siRNA alone, MYT1 #18: 5.899%
NCI-H2122; [1]
  Bliss score maximum value, MYT1 #18: 13.938
ABC-1; 10 nM, no pemetrexed
  Cytotoxic activity of siRNA alone, MYT1 #18: 7.811%
ABC-1; [1]
  Bliss score maximum value, MYT1 #18: 22.139
PC-9; 10 nM, no pemetrexed
  Cytotoxic activity of siRNA alone, MYT1 #18: −9.517%
PC-9; [1]
  Bliss score maximum value, MYT1 #18: 18.833
  HSA score maximum value, MYT1 #18: 14.476
NCI-H2110; 10 nM, no pemetrexed
  Cytotoxic activity of siRNA alone, MYT1 #18: 9.660%
NCI-H2110; [1]
  Bliss score maximum value, MYT1 #18: 23.200
  HSA score maximum value, MYT1 #18: 28.531
NCI-H460; 10 nM, no pemetrexed
  Cytotoxic activity of siRNA alone, MYT1 #18: −2.387%
NCI-H460; [1]
  HSA score maximum value, MYT1 #18: 9.099
NCI-H1155; 10 nM, no pemetrexed
  Cytotoxic activity of siRNA alone, MYT1 #18: 30.960%
NCI-H1155; [1]
  Bliss score maximum value, MYT1 #18: 23.341
  HSA score maximum value, MYT1 #18: 32.708

## MYT1 #16: ON-TARGETplus individual siRNA, Dharmacon product code J-005026-16, nucleotide sequence SEQ ID No: 4 (GGACCUAAGUGACAUCAAC; chemistry not fully specified)
A549; 10 nM, no pemetrexed
  Cytotoxic activity of siRNA alone, MYT1 #16: −3.683%
A549; [2]
  Bliss score maximum value, MYT1 #16: 17.634
  HSA score maximum value, MYT1 #16: 15.047
NCI-H661; 10 nM, no pemetrexed
  Cytotoxic activity of siRNA alone, MYT1 #16: 20.313%
NCI-H661; [2]
  Bliss score maximum value, MYT1 #16: 8.081
  HSA score maximum value, MYT1 #16: 22.502
NCI-H322; 10 nM, no pemetrexed
  Cytotoxic activity of siRNA alone, MYT1 #16: −10.363%
NCI-H322; [2]
  Bliss score maximum value, MYT1 #16: 24.679
NCI-H441; 10 nM, no pemetrexed
  Cytotoxic activity of siRNA alone, MYT1 #16: 12.986%
NCI-H441; [2]
  Bliss score maximum value, MYT1 #16: 21.600
  HSA score maximum value, MYT1 #16: 30.794
ChaGo-K-1; 10 nM, no pemetrexed
  Cytotoxic activity of siRNA alone, MYT1 #16: −1.049%
ChaGo-K-1; [2]
  Bliss score maximum value, MYT1 #16: 40.066
  HSA score maximum value, MYT1 #16: 39.075
NCI-H1993; 10 nM, no pemetrexed
  Cytotoxic activity of siRNA alone, MYT1 #16: 35.910%
NCI-H1993; [2]
  Bliss score maximum value, MYT1 #16: 5.736
  HSA score maximum value, MYT1 #16: 21.843
NCI-H596; 10 nM, no pemetrexed
  Cytotoxic activity of siRNA alone, MYT1 #16: 13.549%
NCI-H596; [2]
  Bliss score maximum value, MYT1 #16: 56.598
  HSA score maximum value, MYT1 #16: 67.277
LU65; 10 nM, no pemetrexed
  Cytotoxic activity of siRNA alone, MYT1 #16: 8.109%
LU65; [2]
  Bliss score maximum value, MYT1 #16: 29.374
  HSA score maximum value, MYT1 #16: 34.405
HOP-62; 10 nM, no pemetrexed
  Cytotoxic activity of siRNA alone, MYT1 #16: 8.347%
HOP-62; [2]
  Bliss score maximum value, MYT1 #16: 20.165
  HSA score maximum value, MYT1 #16: 24.453
NCI-H1666; 10 nM, no pemetrexed
  Cytotoxic activity of siRNA alone, MYT1 #16: −4.467%
NCI-H1666; [2]
  Bliss score maximum value, MYT1 #16: 8.127
  HSA score maximum value, MYT1 #16: 5.753
EKVX; 10 nM, no pemetrexed
  Cytotoxic activity of siRNA alone, MYT1 #16: −1.125%
EKVX; [2]
  Bliss score maximum value, MYT1 #16: 16.454
  HSA score maximum value, MYT1 #16: 15.771
NCI-H292; 10 nM, no pemetrexed
  Cytotoxic activity of siRNA alone, MYT1 #16: 19.878%
NCI-H292; [2]
  Bliss score maximum value, MYT1 #16: 19.031
  HSA score maximum value, MYT1 #16: 21.907
NCI-H358; 10 nM, no pemetrexed
  Cytotoxic activity of siRNA alone, MYT1 #16: 0.021%
NCI-H358; [2]
  Bliss score maximum value, MYT1 #16: 12.322
  HSA score maximum value, MYT1 #16: 12.336
NCI-H2122; 10 nM, no pemetrexed
  Cytotoxic activity of siRNA alone, MYT1 #16: 11.825%
NCI-H2122; [2]
  Bliss score maximum value, MYT1 #16: 15.749
  HSA score maximum value, MYT1 #16: 20.659
ABC-1; 10 nM, no pemetrexed
  Cytotoxic activity of siRNA alone, MYT1 #16: 3.870%
ABC-1; [2]
  Bliss score maximum value, MYT1 #16: 21.970
  HSA score maximum value, MYT1 #16: 25.475
PC-9; 10 nM, no pemetrexed
  Cytotoxic activity of siRNA alone, MYT1 #16: −5.180%
PC-9; [2]
  Bliss score maximum value, MYT1 #16: 35.148
NCI-H2110; 10 nM, no pemetrexed
  Cytotoxic activity of siRNA alone, MYT1 #16: 15.886%
NCI-H2110; [2]
  Bliss score maximum value, MYT1 #16: 24.584
  HSA score maximum value, MYT1 #16: 36.712
NCI-H460; 10 nM, no pemetrexed
  Cytotoxic activity of siRNA alone, MYT1 #16: −6.609%
NCI-H460; [2]
  Bliss score maximum value, MYT1 #16: 17.443
  HSA score maximum value, MYT1 #16: 9.093
NCI-H1155; 10 nM, no pemetrexed
  Cytotoxic activity of siRNA alone, MYT1 #16: 5.782%
NCI-H1155; [2]
  Bliss score maximum value, MYT1 #16: 77.287
  HSA score maximum value, MYT1 #16: 76.586
